Earlier results on one compound are cited in patent publication US7198796B2, “Antifungal parenteral products” (Vicuron Pharmaceuticals Inc., priority 2002, dated 2007).

*1 amine or outer side, *2 acyl side, *3 side chain or, on linkers, in order; H or OH if unused. Where a SMILES comes first, the peptide text is derived from it. Bridges are numbered along the chain shown (N, C = ends). [ ]: non-standard residue; d: D form. The star is where a group is joined. ξ: configuration not given here. pTerphenylCO(4''-OnC5H11) = CCCCCOc1ccc(-c2ccc(-c3ccc(C(=O)*)cc3)cc2)cc1; ξOrn(4R-OH,5R-OH) = O=C(C(C[C@@H](O)[C@@H](O)N[*:3])N[*:1])[*:2]; hTyr(3S-OH,4S-OH) = N[C@H](C(=O)O)[C@H](O)[C@@H](O)c1ccc(O)cc1; Pro(3S-OH,4S-Me) = C[C@H]1CN[C@H](C(=O)O)[C@H]1O; Hyp = O=C(O)[C@@H]1C[C@@H](O)CN1

For `CCCCCOc1ccc(-c2ccc(-c3ccc(C(=O)NC4C[C@@H](O)[C@@H](O)NC(=O)[C@@H]5[C@@H](O)[C@@H](C)CN5C(=O)[C@H]([C@@H](C)O)NC(=O)[C@H]([C@H](O)[C@@H](O)c5ccc(O)cc5)NC(=O)[C@@H]5C[C@@H](O)CN5C(=O)[C@H]([C@@H](C)O)NC4=O)cc3)cc2)cc1` (stereo partly drawn) [anidulafungin, 1-[(4R,5R)-4,5-Dihydroxy-N(2)-[[4″-(pentyloxy)[1,1′:4′,1″-terphenyl]-4-yl]carbonyl]-L-ornithine]echinocandin B] ({pTerphenylCO(4''-OnC5H11)}-[ξOrn(4R-OH,5R-OH)]T[Hyp][hTyr(3S-OH,4S-OH)]T[Pro(3S-OH,4S-Me)]; lactam 1-C), the water solubility entry was “less than 0.1 mg/ml”.
